Measured values taken from publication PMC9038752, “Molecular mechanisms of bifunctional vitamin D receptor agonist-histone deacetylase inhibitor hybrid molecules in triple-negative breast cancer” (Scientific Reports, 2022).
Converted amounts (≈) assume the structure as drawn. Blank lines part the entries; values can stand above or below the compound they belong to.

What was measured:
[1] = tested on: 4T1 mouse model of triple negative breast cancer; design: method as in PMID 28847749; settings: aggressive 4T1 mouse model of TNBC; cited from earlier work
purified HDAC6 = biological target: T1, purified HDAC6 (Homo sapiens, UniProt Q9UBN7); assay: Fluorogenic HDAC inhibition assay, HDAC6; type: biochemical; settings: purified HDAC6, fluorometric substrate
T1 construct: purchased Cayman Chemical
T1 sequence (Q9UBN7 1-1215): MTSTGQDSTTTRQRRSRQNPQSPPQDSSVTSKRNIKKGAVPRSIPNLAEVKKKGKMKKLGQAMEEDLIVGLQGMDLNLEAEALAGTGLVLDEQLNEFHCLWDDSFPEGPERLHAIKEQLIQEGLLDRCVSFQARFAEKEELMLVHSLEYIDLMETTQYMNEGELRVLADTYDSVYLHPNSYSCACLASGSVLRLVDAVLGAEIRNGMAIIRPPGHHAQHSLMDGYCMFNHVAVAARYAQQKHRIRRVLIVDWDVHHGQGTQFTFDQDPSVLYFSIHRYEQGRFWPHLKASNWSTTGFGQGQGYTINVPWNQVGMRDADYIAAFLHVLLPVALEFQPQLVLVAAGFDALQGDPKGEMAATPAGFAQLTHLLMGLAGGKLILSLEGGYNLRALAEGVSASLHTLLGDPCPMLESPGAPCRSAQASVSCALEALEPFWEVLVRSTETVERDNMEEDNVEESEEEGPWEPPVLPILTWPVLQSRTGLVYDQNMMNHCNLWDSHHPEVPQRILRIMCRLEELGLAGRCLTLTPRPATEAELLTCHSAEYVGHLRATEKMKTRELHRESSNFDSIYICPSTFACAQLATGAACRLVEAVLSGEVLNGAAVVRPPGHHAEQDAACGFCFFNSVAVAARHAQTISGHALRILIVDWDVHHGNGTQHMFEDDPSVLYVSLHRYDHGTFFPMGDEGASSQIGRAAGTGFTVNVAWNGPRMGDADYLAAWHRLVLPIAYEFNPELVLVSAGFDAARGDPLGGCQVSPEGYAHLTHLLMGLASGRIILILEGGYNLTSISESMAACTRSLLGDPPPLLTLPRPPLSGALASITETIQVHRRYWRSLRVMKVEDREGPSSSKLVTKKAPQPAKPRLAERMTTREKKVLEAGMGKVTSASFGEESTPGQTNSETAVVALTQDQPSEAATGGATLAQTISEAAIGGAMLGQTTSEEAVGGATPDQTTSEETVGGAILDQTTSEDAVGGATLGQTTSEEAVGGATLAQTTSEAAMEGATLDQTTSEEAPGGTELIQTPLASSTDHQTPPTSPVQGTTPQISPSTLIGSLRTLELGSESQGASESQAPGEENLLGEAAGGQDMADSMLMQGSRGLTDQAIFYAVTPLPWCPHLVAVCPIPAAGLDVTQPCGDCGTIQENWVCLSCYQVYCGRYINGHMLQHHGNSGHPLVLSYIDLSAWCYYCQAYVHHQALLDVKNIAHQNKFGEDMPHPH
Method: (§1) The hybrids were assessed to determine their HDACi and VDR agonist activity as well as their antiproliferative properties relative to DK-406. HDACi activity was assessed in vitro using an acetylated lysine substrate that releases a fluorescent reporter upon HDACi deacetylation and subsequent trypsin digestion. Increasing sidechain length of pyrimidine hybrids enhanced the potency of HDAC6 inhibition, with several compounds inhibiting HDAC6 with a sub-micromolar IC50, similar to that of DK-406 (Fig. 4a). […] Next, we analyzed the effects of compounds on levels of H3K9 and H3K27 acetylation in 4TO7 cells, which are controlled by class I HDACs[29],[30]. […] We also tested the capacity of analogues to induce tubulin acetylation, controlled by class II enzyme HDAC6[32], in 4TO7 cells. Based on their relative efficacy in cytotoxicity assays (see below, Fig. 5c,d), we used 10^–5 M DK-406 and 10^–6 M AM-193 for these studies.
(§2) Figure 4 (a) Results of in vitro assays for inhibition of purified HDAC2 and HDAC6 by DK-406 and heterocyclic hybrids as measured by inhibition of deacetylation of a fluorometric substrate (see Methods for details). (b–d) Left: Western blotting analysis of histone 3 lysine 9 (H3K9; b), H3K27 (c), or acetylated tubulin (d), levels in 4TO7 cells treated with ligands for 6 h. Representative western-blots are shown from at least 3 biological replicates. Right: Graphs representing the average of the replicates, bars are mean ± SD. Each condition was compared to control. *: p ≤ 0.05, **: p ≤ 0.01, ***: p ≤ 0.001, ****: p ≤ 0.0001, ns: not significant. TEXT PRINTED IN THE PICTURE: (a) DK-406: HDAC6 IC50 (μM): 0.6; HDAC2 IC50 (μM): 0.5 | (a) AM-155: HDAC6 IC50 (μM): 2.8; HDAC2 IC50 (μM): 1.7 | (a) AM-171: HDAC6 IC50 (μM): 0.5; HDAC2 IC50 (μM): 9.6 | (a) AM-172: HDAC6 IC50 (μM): 0.3; HDAC2 IC50 (μM): 7.7 | (a) AM-191: HDAC6 IC50 (μM): 1.9; HDAC2 IC50 (μM): 8.1 | (a) AM-192: HDAC6 IC50 (μM): 0.5; HDAC2 IC50 (μM): 6.5 | (a) AM-193: HDAC6 IC50 (μM): 0.3; HDAC2 IC50 (μM): 7.2
(§3) Purified HDAC2 and HDAC6 were purchased from Cayman Chemical. Boc-Lys(Ac)-7-amino-4-methylcoumarin (BocLys(Ac)-AMC) was used as substrate for the HDAC assays. Substrate solution was prepared as follow: Boc(Lys-Ac)-AMC was dissolved in DMSO and diluted with HDAC buffer (15 mM tris–HCl [pH 8.1], 250 μM EDTA, 250 mM NaCl, 10% glycerol) to give 1 mM solutions containing 1.7% DMSO. Trypsin was used to stop the reaction, releasing free AMC. The trypsin solution was prepared as follow: trypsin was dissolved in HDAC buffer to give a concentration of 10 mg/mL. Release of AMC was monitored by measuring the fluorescence at 460 nm (lex = 390 nm) with a microplate reader (SpectraMax Gemini from Molecular Devices) at 37 °C. The AMC signals were recorded against a blank with buffer, substrate and trypsin but without the enzyme. All experiments were carried out at least in triplicate.
(§4) For HDAC inhibition assays, inhibitor diluted in 50 μL of HDAC buffer was mixed with 10 μL of diluted enzyme solution in HDAC buffer at room temperature. The HDAC reaction was started by adding 40 μL of substrate solution in HDAC buffer followed by 60 min of incubation with stirring at 37 °C. The reaction was stopped by adding 100 μL of trypsin solution. After a 30 min incubation with stirring at 37 °C, the release of AMC was monitored by measuring the fluorescence.

purified HDAC2 = biological target: T2, purified HDAC2 (Homo sapiens, UniProt Q92769); assay: Fluorogenic HDAC inhibition assay, HDAC2; type: biochemical; settings: purified HDAC2, fluorometric substrate
T2 construct: purchased Cayman Chemical
Method: as §1, §2, §3, §4

4TO7 cells = assay: RNAseq gene expression profiling in 4TO7 cells; type: cell-based, mouse; settings: relative to control
Method: Cells were treated for 6 h to focus more on genes directly regulated by the VDR, or for 24 or 48 h to gain insight into longer-term effects on gene expression.
McGill Genome Centre performed a quality control before sequencing in paired-end at 50 M reads by Illumina NovaSeq 6000 S4 PE100. Sets of genes regulated in the different conditions were sent to us and downstream analysis were performed.
Table S1 and Table S2 : See Excel files with RNAseq results and analysis
48 hours prior to RNA extraction. Samples were prepared in triplicate and run on Illumina NovaSeq 6000 S4
PE100. For assessing differential gene expression for RNAseq data, the LIMMA package inR was used.
RNAseq results and statistical analyses from D, S, S+D, DK-406, and AM-193 conditions measured relative to
AM-193 for 6 or 24 hours prior to RNA extraction . Samples were prepared in triplicate and run on Illumina
NovaSeq 6000 S4 PE100. For assessing differential gene expression for RNAseq data, the LIMMA package in R was […]

[2] = Aqueous solubility after sonication; type: physicochemical; settings: water; after sonication for 30 min
Source text: The synthesis of the B-ring series mirrored that of the A-ring series producing B-ring hybrids AM-191 (n = 1, 27a), AM-192 (n = 3, 27b), and AM-193 (n = 5, 27c) in 9 steps (Fig. 3).

[3] = tested on: 60 human cell line panel of the National Cancer Institute; design: method as in PMID 26048026; settings: cell lines from a broad range of tumors, including TNBCs; cited from earlier work
[4] = 6 h, RNAseq Supplemental table 1
[5] = 6 h, RNAseq Supplemental table 2, 1 µM AM-193, 10 µM DK-406, 100 nM 1,25D and SAHA
[6] = 24 h, RNAseq Supplemental table 2, 1 µM AM-193, 10 µM DK-406, 100 nM 1,25D and SAHA
[7] = 48 h, RNAseq Supplemental table 1

T2 sequence (Q92769 whole entry): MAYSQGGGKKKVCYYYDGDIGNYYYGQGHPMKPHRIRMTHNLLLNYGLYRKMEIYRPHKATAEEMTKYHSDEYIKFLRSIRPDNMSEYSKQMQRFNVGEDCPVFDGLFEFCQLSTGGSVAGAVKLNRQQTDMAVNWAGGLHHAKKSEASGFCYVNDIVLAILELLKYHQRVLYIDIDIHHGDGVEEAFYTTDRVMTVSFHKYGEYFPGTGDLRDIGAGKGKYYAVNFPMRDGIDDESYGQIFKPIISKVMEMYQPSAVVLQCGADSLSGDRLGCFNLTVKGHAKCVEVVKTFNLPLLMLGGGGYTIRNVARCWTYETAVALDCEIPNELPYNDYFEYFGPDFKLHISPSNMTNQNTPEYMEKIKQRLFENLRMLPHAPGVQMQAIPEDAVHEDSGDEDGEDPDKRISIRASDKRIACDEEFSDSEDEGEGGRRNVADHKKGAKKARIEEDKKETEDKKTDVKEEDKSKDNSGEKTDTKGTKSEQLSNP

Structure (SMILES): O=C(CCCCCCC(=O)Nc1ccccc1)NO [SAHA, Suberoylanilide hydroxamic acid, reference compound]
tumor growth and metastasis [1]: inactive alone or in combination

Structure (SMILES): CCC(CC)(c1ccc(OCCCC(=O)NO)cc1)c1ccc(OCC(O)C(C)(C)C)c(C)n1 (stereo not shown) [AM-192]
IC50 (purified HDAC6): 500 nM | IC50 (purified HDAC2): 6.5 µM

Structure (SMILES): C=C1/C(=C\C=C2/CCC[C@]3(C)[C@@H]([C@H](C)CCCC(C)(C)O)CC[C@@H]23)C[C@@H](O)C[C@@H]1O [1,25D, 1α,25-Dihydroxyvitamin D3, reference compound]
Aaas 6h Log Fold (4TO7 cells; [4]): -1.012 | Aacs 6h Log Fold (4TO7 cells; [4]): 1.070 | Aaed1 6h Log Fold (4TO7 cells; [4]): -1.076 | Aagab 6h Log Fold (4TO7 cells; [4]): 1.036 | Aak1 6h Log Fold (4TO7 cells; [4]): -1.011 | Aaas 6h Log Fold (4TO7 cells; [5]): -0.038 | Aacs 6h Log Fold (4TO7 cells; [5]): 0.025 | Aagab 6h Log Fold (4TO7 cells; [5]): 0.115 | Aak1 6h Log Fold (4TO7 cells; [5]): 0.014 | Aamdc 6h Log Fold (4TO7 cells; [5]): -0.075 | Aaas 24h Log Fold (4TO7 cells; [6]): -0.054 | Aacs 24h Log Fold (4TO7 cells; [6]): 0.127 | Aagab 24h Log Fold (4TO7 cells; [6]): 0.138 | Aak1 24h Log Fold (4TO7 cells; [6]): 0.00666 | Aamdc 24h Log Fold (4TO7 cells; [6]): -0.360 | Aaas 48h Log Fold (4TO7 cells; [7]): -1.436 | Aacs 48h Log Fold (4TO7 cells; [7]): 1.516 | Aaed1 48h Log Fold (4TO7 cells; [7]): -1.677 | Aagab 48h Log Fold (4TO7 cells; [7]): 1.592 | Aak1 48h Log Fold (4TO7 cells; [7]): 1.091 | tumor growth and metastasis [1]: inactive alone or in combination

Structure (SMILES): CCC(CC)(c1ccc(OCC(=O)NO)cc1)c1ccc(OCC(O)C(C)(C)C)c(C)n1 (stereo not shown) [AM-191]
IC50 (purified HDAC6): 1900 nM | IC50 (purified HDAC2): 8.1 µM

Second part, led by results:

IC50 (purified HDAC6): 300 nM | IC50 (purified HDAC2): 7.7 µM
Structure (SMILES): CCC(CC)(c1ccc(OCC(O)C(C)(C)C)c(C)c1)c1ccc(OCCCCCC(=O)NO)cn1 (stereo not shown) [AM-172]

solubility at 30 min [2]: 1.91 µg/mL (≈ 3.82 µM)
Structure (SMILES): CCC(CC)(c1ccc(OCCCCCC(=O)NO)cc1)c1ccc(OCC(O)C(C)(C)C)c(C)c1 (stereo not shown) [DK-367]
tumor growth and metastasis [1]: reduced tumor growth and metastasis | antiproliferative activities [3]: displayed antiproliferative activities
